Like-named read-outs stand apart in the source and are kept apart here. A value given as a limit tells only on which side of the number the result lay.

By EC50 is commonly meant the concentration that produces a half-maximal response. By IC50 is commonly meant the point on the concentration scale where inhibition reaches its midpoint.

Data set [1] concerns T47D cells expressing mutant PI3Ka (H1047R). The data set is described as follows: In vitro cell proliferation, T47D cells (CellTiter-Glo). Format: cell-based. Conditions: inhibition of proliferation, 72 hours, read-out: Avg T-47D EC50. In a few lines:
(§1)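 T47D (PI3Kα H1047R; RPMI, 10% FBS, insulin 0.2 units/mL) or SKBR3 (WT PI3Kα; McCoys 5a, 10% FBS) cells seeded at 1,500 cells/well on 10-point compound dilutions, grown 72 h at 37 °C. CellTiter-Glo luminescence; inhibition normalised to 0.1% DMSO and 10 uM alpelisib, EC50 from four-parameter fit.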
A general note: In ATP-based viability assays light output follows the ATP content of the culture.

The subject of data set [2] is SKBR3 cells express WT PI3Ka. In words: In vitro cell proliferation, SKBR3 cells (CellTiter-Glo). Format: cell-based. Particulars: inhibition of proliferation, 72 hours. In a few lines:
as §1

Data set [3] concerns phosphorylation of AKT (pAKT) in T47D cells expressing mutant PI3Ka (H1047R). In words: In vitro cell pAKT (Ser473) HTRF, T47D cells. Format: cell-based. The essentials:
(§2)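 Cells seeded on plates pre-stamped with 10-point compound dilutions, then grown 6 h at 37 °C (T47D in RPMI/10% FBS/insulin; SKBR3 in McCoy's 5a/10% FBS). Lysates read for pAKT Ser473 by HTRF after overnight antibody incubation. Inhibition normalised to 0.1% DMSO and 10 uM alpelisib; IC50 by four-parameter fit.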
In general terms: In TR-FRET formats the signal depends on donor and acceptor labels being close together.

Data set [4] relates to phosphorylation of AKT (pAKT) in SKBR3 cells express WT PI3Ka. The data set is described as follows: In vitro cell pAKT (Ser473) HTRF, SKBR3 cells. It counts as cell-based. Particulars: 6 hours. The essentials:
as §2

Data set [5] is described as follows: Mouse pharmacokinetics, single IV or PO dose, plasma LC/MS/MS. It counts as in vivo. Conditions: CD1 mice; for PK-Mouse: PO F: PO 10 mg/kg vs IV 1 mg/kg; for AUC(0-t) / clearance: mouse, plasma; for clearance: read-out: PK-Mouse: IV Cl. The procedure:
CD1 mice were dosed with a single IV or PO dose, followed by serial sampling of plasma at 0.0833 (IV only), 0.25, 0.5, 1, 2, 4, 8, 24 hours post dose. Desired serial concentrations of working solutions were achieved by diluting stock solution of analyte with 50% acetonitrile in water solution.10 μL of working solutions […] were added to 10 μL of the blank Female CD1 Mouse plasma to achieve calibration standards of 0.5˜1000 ng/ml (0.5, 1, 2, 5, 10, 50, 100, 500, 1000 ng/ml) in a total volume of 20 μL. Five quality control samples at 1 ng/ml, 2 ng/ml, 5 ng/ml, 50 ng/ml and 800 ng/ml for plasma were prepared independently of those used for the calibration curves. These QC samples were prepared on the day of analysis in the same way as calibration standards. 20 μL standards, 20 μL QC samples and 20 μL unknown samples (10 μL plasma with 10 μL blank solution) were added to 200 μL of acetonitrile containing IS mixture for precipitating protein respectively. Then the samples were vortexed for 30 s. after centrifugation at 4° Celsius, 4000 rpm for 15 min. The supernatant was diluted with water at a ratio of 1:2 (V/V, 1:2), Then 5 μL of diluted supernatant was injected into the LC/MS/MS system for quantitative analysis.

[6] abbreviates: IV 1 mg/kg, 20% PEG400/20% PG/60% of 20% HPβCD solution in water, read-out: PK-Mouse: IV AUC last.
[7] abbreviates: IV 1 mg/kg, 20% PEG400/20% PG/60% of 20% HPβCD solution in water.
Setting [8] is: PO 10 mg/kg, 30% SBEβCD in water, read-out: PK-Mouse PO AUC last.
Setting [9] is: cellular pAKT, T47D cells, mutant PI3Ka (H1047R), 6 hours; read-out: Avg T-47D IC50.

With `Cc1cc(C(C)Nc2ccccc2C(=O)O)c2cc(N3CCC(C)(C)CC3)n(C)c(=O)c2c1` (single isomer, unassigned) [Example 1, 2-((1-(3-(4,4-dimethylpiperidin-1-yl)-2,7-dimethyl-1-oxo-1,2-dihydroisoquinolin-5-yl)ethyl)amino)benzoic acid], the values for the EC50 in data set [1] and in data set [2] were 1 to 500 nM and 2000 to 15000 nM, respectively. Moreover, the IC50 in data set [3] (read-out: Avg T-47D IC50; cellular pAKT, T47D cells, mutant PI3Ka (H1047R), 6 hours) was 1 to 500 nM; in data set [4] (Homo sapiens, SK-BR-3, cellular pAKT), above 15000 nM. In addition, the “PK-Mouse: PO F” value in data set [5] amounted to 50%. Besides, the AUC(0-t) in data set [5] (setting [6]) turned out to be 3060 ng·h/mL; in data set [5] (setting [8]), 15200 ng·h/mL. Further, in data set [5] (setting [7]), the clearance turned out to be 5.7 mL/min/kg.
As to `Cc1cc(C(C)Nc2ccccc2C(=O)O)c2cc(N3CCN(CC(F)(F)F)CC3)n(C)c(=O)c2c1` (single isomer, unassigned) [Example 8, 2-((1-(2,7-dimethyl-1-oxo-3-(4-(2,2,2-trifluoroethyl)piperazin-1-yl)-1,2-dihydroisoquinolin-5-yl)ethyl)amino)benzoic acid], the EC50 in data set [1] was 1 to 500 nM; in data set [2] it was 2000 to 15000 nM. In addition, the IC50 was 1 to 500 nM in data set [3] (setting [9]) and 2000 to 15000 nM in data set [4] (cellular pAKT). In data set [5], the “PK-Mouse: PO F” value was 62%. The AUC(0-t) stood at 1440 ng·h/mL in data set [5] (setting [6]) and 8900 ng·h/mL in data set [5] (setting [8]). For the same molecule, the clearance in data set [5] (setting [7]) was 11.7 mL/min/kg.
On to `Cc1cc(C(C)Nc2ccc(Cl)nc2C(=O)O)c2cc(C3=CCC(C)(C)CC3)n(C)c(=O)c2c1` (single isomer, unassigned) [Example 23, 6-chloro-3-((1-(3-(4,4-dimethylcyclohex-1-en-1-yl)-2,7-dimethyl-1-oxo-1,2-dihydroisoquinolin-5-yl)ethyl)amino)picolinic acid], for which the EC50 in data set [1] lay in the range of 1 to 500 nM; in data set [2] it was 2000 to 15000 nM. The IC50 in data set [3] (setting [9]) is 500 to 2000 nM; in data set [4] (cellular pAKT), above 15000 nM. For the same molecule, the “PK-Mouse: PO F” value in data set [5] was determined as 106%. The AUC(0-t) stood at 683 ng·h/mL in data set [5] (setting [6]) and 7230 ng·h/mL in data set [5] (setting [8]). Also, the clearance in data set [5] (setting [7]) came to 24.6 mL/min/kg.

These data come from US20260078103A1, “ISOQUINOLONES AS PI3K INHIBITORS” (OnKure, Inc., priority 2022, published 2026).
